Data from paper PMC10147923, “Pain-causing stinging nettle toxins target TMEM233 to modulate NaV1.7 function” (Nature Communications, 2023).
Several values for one entry are separate records, joined by “and”; a condition that tells them apart may be missing. Equal entries are not always repeated. Where two headings read alike, the source gives them in different places. Positions of bridges follow the written chain, without caps; N, C: chain ends. Residues, ends and D or L forms follow the SMILES beside them.

What was measured:
NaV1.7/TMEM233 = NaV1.7/TMEM233 (Homo sapiens, UniProt B4DJY2+Q15858); format: cell-based
Procedure: (§1) HEK293-NaV1.7 cells were transfected with TMEM233, CRELD1, LMAN2L, MMGT1, RNF121 and STT3B and co-transfected with five plasmids coding for the Glycosylphosphatidylinositol (GPI) complex (GPAA1, PIGK, PIGS, PIGU, PIGT) using Lipofectamine 2000. After 24 h, transfected cells were harvested and plated at a density of 10,000–15,000 cells per well on black-walled 384-well imaging plates. Plated cells were cultured for a further 24 h at 37 °C and 5% CO2. FLIPR (Fluorescent Imaging Plate Reader) Red membrane potential assay dye (Molecular Devices, California, USA) was diluted in physiological salt solution according to the manufacturer’s instructions (PSS, in mM: NaCl 140, glucose 11.5, HEPES 10, KCl 5.9, MgCl2 1.4, NaH2PO4 1.2, NaHCO3 5, CaCl2 1.8, pH 7.4). Growth medium was removed from the plate and replaced with 20 µL of FLIPR Red membrane potential assay dye per well and incubated in the dark at 37 °C for 60 min. […] Fluorescence responses to ExTxA were computed as the maximum change in fluorescence over baseline (ΔF/F0) using ScreenWorks (Molecular Devices, Version 5.1.2.94).

hNaV1.7/TMEM233 = test: Persistent current, CHO hNaV1.7/TMEM233; format: cell-based, human; conditions: ExTxA 1 µM; hNaV1.7/TMEM233; mean ± SEM, n = 16
HEK293-NaV1.7 cells = format: cell-based, human; conditions: ExTxA 1 µM; for ΔF/F in NaV1.7 HEK293: mean, n = 3
Procedure: as §1

TE-671 cells, TMEM233 KO = format: cell-based; conditions: ExTxA 1 µM
hNaV1.7/β1 = test: Persistent current, CHO hNaV1.7/β1; format: cell-based, human; conditions: ExTxA 1 µM, mean, n = 11
TMEM233 = TMEM233 (Homo sapiens, UniProt B4DJY2); test: Currents in Cos-1 cells transfected with TMEM233 only; format: cell-based
Chain of TMEM233 (B4DJY2 whole entry): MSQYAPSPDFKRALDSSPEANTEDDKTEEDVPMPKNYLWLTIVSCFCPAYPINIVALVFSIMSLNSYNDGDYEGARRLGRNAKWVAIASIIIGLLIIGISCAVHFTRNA
Procedure: Whole-cell patch clamp experiments involving HEK293, COS-1, CHO, ND7/23, F11, SH-SY5Y and TE-671 cells were performed on a QPatch II automated electrophysiology platform (Sophion Bioscience, Ballerup, Denmark) as previously described. Cells at approximately 70–80% confluency were harvested from T75 flasks using TrypLE Express at 37 °C for 2–5 min and resuspended in DMEM with 25 mM HEPES (Sigma-Aldrich, NSW, Australia), 100 U/mL Penicillin-Streptomycin (Gibco) and 40 µg/mL trypsin inhibitor from Glycine max (soybean) (Sigma Aldrich) prior to recovery on a QStirrer (Sophion) for 30 min. 16-channel patch plates with a patch hole diameter of 1 μm and resistance of 2 ± 0.02 MΩ were used. Cell positioning and sealing parameters were as follows: positioning pressure −60 mbar, minimum seal resistance 0.1 GΩ, holding potential −100 mV, holding pressure −20 mbar. Whole-cell currents were filtered at 5 kHz and acquired at 25 kHz. Series resistance compensation was used and set to 70%.

[1] = tested on: total and TTX-s NaV current in wild-type DRG neurons; test: Persistent total NaV current, manual patch clamp, mouse DRG neurons; format: cell-based
[2] = best-fit value, log(agonist) vs. response -- variable slope (four parameters)

CC[C@H](C)[C@@H]1NC(=O)[C@H](CCCNC(=N)N)NC(=O)[C@H](Cc2ccccc2)NC(=O)[C@H](CC(C)C)NC(=O)[C@H](CO)NC(=O)[C@@H]2CSSC[C@@H]3NC(=O)[C@H]([C@@H](C)O)NC(=O)[C@H](CSSC[C@H](NC(=O)[C@H](CCCNC(=N)N)NC(=O)[C@@H]4CCCN4C(=O)[C@@H](N)CC(C)C)C(=O)N[C@@H](CC(=O)O)C(=O)N[C@@H](CO)C(=O)N4CCC[C@H]4C(=O)N[C@@H](Cc4ccccc4)C(=O)N2)NC(=O)[C@H](CCCCN)NC(=O)[C@H](CC(=O)O)NC(=O)CNC(=O)[C@H](CSSC[C@@H](C(=O)N[C@H](C(=O)N2CCC[C@H]2C(=O)N[C@@H](CC(=O)O)C(=O)N[C@H](C(=O)O)C(C)C)C(C)C)NC(=O)[C@H](CC(C)C)NC(=O)CNC(=O)[C@H](Cc2ccccc2)NC(=O)[C@H]([C@@H](C)CC)NC(=O)[C@@H]2CCCN2C(=O)[C@H](CC(C)C)NC(=O)[C@@H]2CCCN2C(=O)[C@H](C(C)C)NC3=O)NC(=O)[C@H](CC(C)C)NC(=O)CNC1=O [ExTxA, excelsatoxin A] (H-LPRCDSPFCSLFRIGLCGDKCTCVPLPIFGLCVPDV-OH; disulfide 4-21, 9-23, 17-32)
DF/F (NaV1.7/TMEM233): 0.3009 and 0.2755 | ΔF/F in NaV1.7 HEK293 (NaV1.7/TMEM233; ExTxA 1 µM, TMEM233, mean, n = 3): 0.29 ± 0.0075 and 0.2867 | DF/F (NaV1.7/TMEM233; ExTxA 1 µM, TMEM233, replicate 3): 0.2837 | Bottom (NaV1.7/TMEM233; [2]): 0.07296 | HillSlope (NaV1.7/TMEM233; [2]): 1.156 | LogEC50 (NaV1.7/TMEM233; [2]): -8.146 | Span (NaV1.7/TMEM233; [2]): 0.6962 | Top (NaV1.7/TMEM233; [2]): 0.7692 | ExTxA-sensitivity of NaV1.7-expressing HEK293 cells (NaV1.7/TMEM233; of all 10 gene hits): only expression of TMEM233 imparted ExTxA-sensitivity to NaV1.7-expressing HEK293 cells | CHO cells persistent current (I40 ms) (hNaV1.7/TMEM233): -2.010 ± 0.277 nA | ΔF/F in NaV1.7 HEK293 (HEK293-NaV1.7 cells; Control (untransfected NaV1.7)): 0.016 ± 0.013 and 0.01598 | DF/F (HEK293-NaV1.7 cells; GPAA1+PIG K, S, T, U, replicate 1): -0.0084 | DF/F (HEK293-NaV1.7 cells; GPAA1+PIG K, S, T, U, replicate 2): -0.00023 | DF/F (HEK293-NaV1.7 cells; GPAA1+PIG K, S, T, U, replicate 3): -0.01147 | ΔF/F in NaV1.7 HEK293 (HEK293-NaV1.7 cells; Lman2L): 0.014 ± 0.0048 and 0.01413 | DF/F (HEK293-NaV1.7 cells; Lman2L, replicate 1): 0.02361 | DF/F (HEK293-NaV1.7 cells; Lman2L, replicate 2): 0.01087 | DF/F (HEK293-NaV1.7 cells; Lman2L, replicate 3): 0.007914 | DF/F (HEK293-NaV1.7 cells; Mmgt1, replicate 1): -0.00761 | DF/F (HEK293-NaV1.7 cells; Mmgt1, replicate 2): -0.00711 | DF/F (HEK293-NaV1.7 cells; Mmgt1, replicate 3): -0.00296 | DF/F (HEK293-NaV1.7 cells; RNF121, replicate 1): -0.01721 | DF/F (HEK293-NaV1.7 cells; RNF121, replicate 2): -0.01119 | DF/F (HEK293-NaV1.7 cells; RNF121, replicate 3): 0.007423 | ΔF/F in NaV1.7 HEK293 (HEK293-NaV1.7 cells; Stt3b): 0.013 ± 0.00098 and 0.01262 | DF/F (HEK293-NaV1.7 cells; Stt3b, replicate 1): 0.01077 | DF/F (HEK293-NaV1.7 cells; Stt3b, replicate 2): 0.013 | DF/F (HEK293-NaV1.7 cells; Stt3b, replicate 3): 0.01408 | DF/F (HEK293-NaV1.7 cells; Untransfected Nav1.7, replicate 1): 0.03099 | DF/F (HEK293-NaV1.7 cells; Untransfected Nav1.7, replicate 2): -0.01092 | DF/F (HEK293-NaV1.7 cells; Untransfected Nav1.7, replicate 3): 0.02788 | Difference between means (B - A), TMEM233-/- minus wildtype (TE-671 cells, TMEM233 KO): -0.7661 ± 0.02026 | persistent current (I40 ms/Ipeak) (TE-671 cells, TMEM233 KO; TMEM233-/-, individual cells): 0.1031 and 0.03299 and 0.02248 and 0.06663 and 0.03142 and 0.02781 | Δ persistent current (I40 ms/Ipeak) in CHO hNaV1.7 (hNaV1.7/β1): 0.0001 ± 0.001 and 0.0001365 | ExTxA-induced persistent current (TMEM233): -7.493 ± 8.833 | ExTxA-induced currents, TMEM233 alone (TMEM233; cells lacking endogenous NaV currents): did not result in either voltage-gated or ExTxA-induced currents | DRG total persistent NaV current (I40 ms/Ipeak) ([1]; ExTxA 100 nM in 0.1% BSA, depolarization to -20 mV from -90 mV, mean, n = 6): 0.513 ± 0.10 and 0.5133 | Mean Diff. of persistent current, Control vs. ExTxA ([1]; ExTxA 100 nM, Tukey's multiple comparisons): -0.4859 | DRG total persistent NaV current (I40 ms/Ipeak) ([1]; ExTxA 100 nM, individual cells, one line per cell): 0.842 and 0.3774 and 0.8283 and 0.3793 and 0.3284 and 0.3245
